According to patent US20130224795A1, “IMMOBILIZATION METHOD OF BIOACTIVE MOLECULES USING POLYPHENOL OXIDASE” (Ajou University Industry-Academic Cooperation Foundation, priority 2010, published 2013):

Key:
[1] = system: osteoblasts (MC3T3-E1); assay: Cell proliferation assay (MTT); assay type: cell-based; settings: immobilized stainless steel; 1×10^4 cell/cm^2; 7 days; versus bare surface
Procedure: For cell proliferation assay, osteoblasts (MC3T3-E1) were cultured at a density of 1×10^4 cell/cm^2 for 7 days on RGD- or gelatin-immobilized stainless steel, titanium or polyurethane surfaces, followed by conducting an MTTassay. Each specimen is represented in the form of, for example, ST-RGD 0.17 which stands for the immobilization of RGD at a concentration of 0.17 μg/cm^2 on stainless steel.

[2] = Contact angle measurement on immobilized substrate surfaces; assay type: physicochemical; settings: stainless steel or titanium; immobilization 30 min; tyramine with tyrosinase 0.4 KU/mL, dopamine without
Procedure: For experiments, dopamine and tyramine/tyrosinase were immobilized onto metal surfaces. In this regard, 450 μL of phosphate saline buffer was added to a piece of stainless steel or titanium metal and mixed with 40 μL of dopamine or tyramine having a concentration of 100 μg/mL. In the case of tyramine, tyrosinase having a concentration of 0.4 KU/mL was added in an amount of 10 μL. For effective comparison, a reaction was performed for 30 min. After immobilization, the specimens were washed three to five times with distilled water. An analysis was made of the results using contact angles and amine distributions on the surface. For contact angle measurements, droplets of 1 μL were deposited on a specimen surface and the angle at which the droplet interface meets the surface was measured using a contact angle meter (GBX Inc., France) and image analysis software.
Contact angles were measured to examine the change in hydrophilicity of bioactive molecule-immobilized surface. Droplets of 1 μL were deposited on a specimen surface after which contact angles were measured using a contact anglemeter (GBX Inc., France) equipped with image analysis software.

contact angle [2] | Molecule | proliferation of osteoblasts [1]
 | gelatin-poly(ethylene glycol)-tyramine | improved the proliferation
30 ° | NCCc1ccc(O)cc1 [tyramine] | 
45 ° | NCCc1ccc(O)c(O)c1 [dopa, dopamine] | 
